In patent US20190071416A1, “COMPOUNDS FOR TREATMENT OF CANCER AND EPIGENETICS” (Agency For Science, Technology and Research, priority 2015, published 2019):

These molecules were tested against T1, SMYD3 (Homo sapiens, UniProt Q9H7B4) (assay: SMYD3 biochemical assay (MTase-Glo, MAP3K2 peptide substrate)). Settings: Table 3; MTase assay, MAP3K2 peptide substrate; read-out: IC50.
T1 sequence (Q9H7B4 1-428): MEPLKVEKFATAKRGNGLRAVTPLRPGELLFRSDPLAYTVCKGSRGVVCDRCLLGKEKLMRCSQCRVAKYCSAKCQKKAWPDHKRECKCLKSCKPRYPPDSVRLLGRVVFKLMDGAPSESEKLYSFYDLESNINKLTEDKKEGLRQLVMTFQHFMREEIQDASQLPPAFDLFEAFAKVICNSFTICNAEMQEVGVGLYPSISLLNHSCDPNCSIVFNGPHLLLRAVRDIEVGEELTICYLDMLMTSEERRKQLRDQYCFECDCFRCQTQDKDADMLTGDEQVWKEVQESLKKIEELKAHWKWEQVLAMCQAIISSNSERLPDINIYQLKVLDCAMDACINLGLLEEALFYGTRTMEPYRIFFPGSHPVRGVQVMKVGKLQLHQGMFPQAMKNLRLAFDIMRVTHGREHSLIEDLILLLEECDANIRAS
Summary of the method: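 Methylation of MAP3K2 peptide (10 µM final) with SAM (1.0 µM final) by SMYD3, 30 min at room temperature. SAH formed was enzymatically converted to ATP and detected as luminescence with MTase-Glo reagents; IC50 by non-linear regression.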

Q: For CCCOC(=O)N1CCN(C(=O)c2ccc3c(Cl)c4c(nc3c2)CCC(CCN(C)C)C4)[C@@H](C)C1 (stereo partly drawn) [A082, Propyl (3S)-4-(9-chloro-7-(2-(dimethylamino)ethyl)-5,6,7,8-tetrahydroacridine-3-carbonyl)-3-methylpiperazine-1-carboxylate], which IC50 is on record?
A: Its IC50 is 510 nM.

Q: With Cc1cc(C(=O)N2CCN(C(=O)c3ccc4c(Cl)c5c(nc4c3)CCCC5)[C@@H](C)C2)no1 [A083, (S)-(9-Chloro-5,6,7,8-tetrahydroacridin-3-yl)(2-methyl-4-(5-methylisoxazole-3-carbonyl)piperazin-1-yl)methanone] as the molecule, how does the IC50 read?
A: The IC50 was 440 nM.

Q: For CCCOC(=O)N1CCN(C(=O)c2ccc3c(Cl)c4c(nc3c2)CCC(CC(=O)OC)C4)[C@@H](C)C1 (stereo partly drawn) [A084, Propyl (3S)-4-(9-chloro-7-(2-methoxy-2-oxoethyl)-5,6,7,8-tetrahydroacridine-3-carbonyl)-3-methylpiperazine-1-carboxylate], which IC50 is on record?
A: The IC50 was 120 nM.

Q: CCCOC(=O)N1CCN(C(=O)c2ccc3c(Cl)c4c(nc3c2)CCC(CC(=O)OC)C4)[C@H](C)C1 (stereo partly drawn) [A085, Propyl (3R)-4-(9-chloro-7-(2-methoxy-2-oxoethyl)-5,6,7,8-tetrahydroacridine-3-carbonyl)-3-methylpiperazine-1-carboxylate] was tested. Which IC50 did it give?
A: The IC50 was 160 nM.

Q: With CCCOC(=O)N1CCN(C(=O)c2ccc3c(Cl)c4c(nc3c2)CC(c2ccccn2)CC4)[C@@H](C)C1 (stereo partly drawn) [A086, Propyl (3S)-4-(9-chloro-6-(pyridin-2-yl)-5,6,7,8-tetrahydroacridine-3-carbonyl)-3-methylpiperazine-1-carboxylate] as the molecule, how does the IC50 read?
A: Its IC50 is 95 nM.

Q: How did the IC50 turn out when CCCOC(=O)N1CCN(C(=O)c2ccc3c(Cl)c4c(nc3c2)CC(c2ccccn2)CC4)[C@H](C)C1 (stereo partly drawn) [A087, Propyl (3R)-4-(9-chloro-6-(pyridin-2-yl)-5,6,7,8-tetrahydroacridine-3-carbonyl)-3-methylpiperazine-1-carboxylate] was run?
A: Its IC50 is 56 nM.

Q: Which IC50 does the source give for CCCOC(=O)N1CCN(C(=O)c2ccc3c(Cl)c4c(nc3c2)CCC(Cc2noc(C)n2)C4)CC1 (stereo not drawn) [A089, Propyl 4-(9-chloro-7-((5-methyl-1,2,4-oxadiazol-3-yl)methyl)-5,6,7,8-tetrahydroacridine-3-carbonyl)piperazine-1-carboxylate] here?
A: The IC50 was 350 nM.

Q: For CCCOC(=O)N1CCN(C(=O)c2ccc3c(Cl)c4c(nc3c2)CC(CNC(=N)N)CC4)[C@@H](C)C1 (stereo partly drawn) [A090, Propyl (3S)-4-(9-chloro-6-(guanidinomethyl)-5,6,7,8-tetrahydroacridine-3-carbonyl)-3-methylpiperazine-1-carboxylate], which IC50 is on record?
A: The IC50 was 350 nM.

Q: For CCCOC(=O)N1CCN(C(=O)c2ccc3c(Cl)c4c(nc3c2)CC(CCNC(=N)N)CC4)[C@@H](C)C1 (stereo partly drawn) [A091, Propyl (3S)-4-(9-chloro-6-(2-guanidinoethyl)-5,6,7,8-tetrahydroacridine-3-carbonyl)-3-methylpiperazine-1-carboxylate], which IC50 is on record?
A: The IC50 was 140 nM.

Q: CCCOC(=O)N1CCN(C(=O)c2ccc3c(Cl)c4c(nc3c2)CC(c2ccncc2)CC4)[C@@H](C)C1 (stereo partly drawn) [A092, Propyl (3S)-4-(9-chloro-6-(pyridin-4-yl)-5,6,7,8-tetrahydroacridine-3-carbonyl)-3-methylpiperazine-1-carboxylate] was tested. Which IC50 did it give?
A: The IC50 was 110 nM.

Q: For CCCOC(=O)N1CCN(C(=O)c2ccc3c(Cl)c4c(nc3c2)CC(c2ccncc2)CC4)[C@H](C)C1 (stereo partly drawn) [A093, Propyl (3R)-4-(9-chloro-6-(pyridin-4-yl)-5,6,7,8-tetrahydroacridine-3-carbonyl)-3-methylpiperazine-1-carboxylate], which IC50 is on record?
A: The IC50 was 100 nM.

Q: How did the IC50 turn out when CCCOC(=O)N1CCN(C(=O)c2ccc3c(Cl)c4c(nc3c2)CC(c2ccc(F)cn2)CC4)CC1 (stereo not drawn) [A094, Propyl 4-(9-chloro-6-(5-fluoropyridin-2-yl)-5,6,7,8-tetrahydroacridine-3-carbonyl)piperazine-1-carboxylate] was run?
A: Its IC50 is 140 nM.

Q: CCCOC(=O)N1CCN(C(=O)c2ccc3c(Cl)c4c(nc3c2)CC(c2ccc(F)cn2)CC4)[C@@H](C)C1 (stereo partly drawn) [A095, Propyl (3S)-4-(9-chloro-6-(5-fluoropyridin-2-yl)-5,6,7,8-tetrahydroacridine-3-carbonyl)-3-methylpiperazine-1-carboxylate] was tested. Which IC50 did it give?
A: The IC50 was 110 nM.

Q: With CCCOC(=O)N1CCN(C(=O)c2ccc3c(Cl)c4c(nc3c2)CC(c2ncccc2C)CC4)CC1 (stereo not drawn) [A096, Propyl 4-(9-chloro-6-(3-methylpyridin-2-yl)-5,6,7,8-tetrahydroacridine-3-carbonyl)piperazine-1-carboxylate] as the molecule, how does the IC50 read?
A: Its IC50 is 1200 nM.

Q: CCCOC(=O)N1CCN(C(=O)c2ccc3c(Cl)c4c(nc3c2)CC(c2ccc(F)cn2)CC4)C[C@@H]1C (stereo partly drawn) [A097, Propyl (2S)-4-(9-chloro-6-(5-fluoropyridin-2-yl)-5,6,7,8-tetrahydroacridine-3-carbonyl)-2-methylpiperazine-1-carboxylate] was tested. Which IC50 did it give?
A: The IC50 was 170 nM.

Q: CCCOC(=O)N1CCN(C(=O)c2ccc3c(Cl)c4c(nc3c2)CC(c2ccc(F)cn2)CC4)C[C@H]1C (stereo partly drawn) [A098, Propyl (2R)-4-(9-chloro-6-(5-fluoropyridin-2-yl)-5,6,7,8-tetrahydroacridine-3-carbonyl)-2-methylpiperazine-1-carboxylate] was tested. Which IC50 did it give?
A: Its IC50 is 150 nM.

Q: CCCOC(=O)N1CCN(C(=O)c2ccc3c(Cl)c4c(nc3c2)CC(c2ncccc2F)CC4)CC1 (stereo not drawn) [A099, Propyl 4-(9-chloro-6-(3-fluoropyridin-2-yl)-5,6,7,8-tetrahydroacridine-3-carbonyl)piperazine-1-carboxylate] was tested. Which IC50 did it give?
A: Its IC50 is 590 nM.

Q: With CCCOC(=O)N1CCN(C(=O)c2ccc3c(Cl)c4c(nc3c2)CC(c2ncccc2F)CC4)[C@@H](C)C1 (stereo partly drawn) [A100, Propyl (3S)-4-(9-chloro-6-(3-fluoropyridin-2-yl)-5,6,7,8-tetrahydroacridine-3-carbonyl)-3-methylpiperazine-1-carboxylate] as the molecule, how does the IC50 read?
A: Its IC50 is 570 nM.

Q: CCCOC(=O)N1CCN(C(=O)c2ccc3c(Cl)c4c(nc3c2)CC(c2ncccc2C)CC4)[C@@H](C)C1 (stereo partly drawn) [A101, Propyl (3S)-4-(9-chloro-6-(3-methylpyridin-2-yl)-5,6,7,8-tetrahydroacridine-3-carbonyl)-3-methylpiperazine-1-carboxylate] was tested. Which IC50 did it give?
A: The IC50 was 1700 nM.

Q: Which IC50 does the source give for CCCOC(=O)N1CCN(C(=O)c2ccc3c(Cl)c4c(nc3c2)CC(CN)CC4)[C@H](C)C1 (stereo partly drawn) [A102, Propyl (3R)-4-(6-(aminomethyl)-9-chloro-5,6,7,8-tetrahydroacridine-3-carbonyl)-3-methylpiperazine-1-carboxylate] here?
A: Its IC50 is 230 nM.

Q: CCCOC(=O)N1CCN(C(=O)c2ccc3c(Cl)c4c(nc3c2)CC(Cc2ccccn2)CC4)CC1 (stereo not drawn) [A103, Propyl 4-(9-chloro-6-(pyridin-2-ylmethyl)-5,6,7,8-tetrahydroacridine-3-carbonyl)piperazine-1-carboxylate] was tested. Which IC50 did it give?
A: Its IC50 is 390 nM.

Q: With CCCOC(=O)N1CCN(C(=O)c2ccc3c(Cl)c4c(nc3c2)CC(c2ccnc(C)c2)CC4)CC1 (stereo not drawn) [A104, Propyl 4-(9-chloro-6-(2-methylpyridin-4-yl)-5,6,7,8-tetrahydroacridine-3-carbonyl)piperazine-1-carboxylate] as the molecule, how does the IC50 read?
A: Its IC50 is 83 nM.

Q: Which IC50 does the source give for CCCOC(=O)N1CCN(C(=O)c2ccc3c(Cl)c4c(nc3c2)CC(CCN(C)C)CC4)CC1 (stereo not drawn) [A105, Propyl 4-(9-chloro-6-(2-(dimethylamino)ethyl)-5,6,7,8-tetrahydroacridine-3-carbonyl)piperazine-1-carboxylate] here?
A: Its IC50 is 90 nM.

Q: CCCOC(=O)N1CCN(C(=O)c2ccc3c(Cl)c4c(nc3c2)CC(c2ccc(F)cn2)CC4)[C@H](C)C1 (stereo partly drawn) [A106, Propyl (3R)-4-(9-chloro-6-(5-fluoropyridin-2-yl)-5,6,7,8-tetrahydroacridine-3-carbonyl)-3-methylpiperazine-1-carboxylate] was tested. Which IC50 did it give?
A: Its IC50 is 41 nM.

Q: With CCCOC(=O)N1CCN(C(=O)c2ccc3c(Cl)c4c(nc3c2)CC(c2ncccc2C)CC4)C[C@@H]1C (stereo partly drawn) [A107, Propyl (2S)-4-(9-chloro-6-(3-methylpyridin-2-yl)-5,6,7,8-tetrahydroacridine-3-carbonyl)-2-methylpiperazine-1-carboxylate] as the molecule, how does the IC50 read?
A: Its IC50 is 380 nM.

Q: With CCCOC(=O)N1CCN(C(=O)c2ccc3c(Cl)c4c(nc3c2)CC(c2ncccc2C)CC4)C[C@H]1C (stereo partly drawn) [A108, Propyl (2R)-4-(9-chloro-6-(3-methylpyridin-2-yl)-5,6,7,8-tetrahydroacridine-3-carbonyl)-2-methylpiperazine-1-carboxylate] as the molecule, how does the IC50 read?
A: Its IC50 is 480 nM.

Q: With CCCOC(=O)N1CCN(C(=O)c2ccc3c(Cl)c4c(nc3c2)CC(c2ncccc2C)CC4)[C@H](C)C1 (stereo partly drawn) [A109, Propyl (3R)-4-(9-chloro-6-(3-methylpyridin-2-yl)-5,6,7,8-tetrahydroacridine-3-carbonyl)-3-methylpiperazine-1-carboxylate] as the molecule, how does the IC50 read?
A: Its IC50 is 720 nM.

Q: With CCCOC(=O)N1CCN(C(=O)c2ccc3c(Cl)c4c(nc3c2)CCCC4)CC1COC (stereo not drawn) [A110, Propyl 4-(9-chloro-5,6,7,8-tetrahydroacridine-3-carbonyl)-2-(methoxymethyl)piperazine-1-carboxylate] as the molecule, how does the IC50 read?
A: The IC50 was 840 nM.

Q: With CCCOC(=O)N1CCN(C(=O)c2ccc3c(Cl)c4c(nc3c2)CC(CCN)CC4)[C@H](C)C1 (stereo partly drawn) [A111, Propyl (3R)-4-(6-(2-aminoethyl)-9-chloro-5,6,7,8-tetrahydroacridine-3-carbonyl)-3-methylpiperazine-1-carboxylate] as the molecule, how does the IC50 read?
A: Its IC50 is 47 nM.

Q: For CCCOC(=O)N1CCN(C(=O)c2ccc3c(Cl)c4c(nc3c2)CC(c2cnccn2)CC4)CC1 (stereo not drawn) [A112, Propyl 4-(9-chloro-6-(pyrazin-2-yl)-5,6,7,8-tetrahydroacridine-3-carbonyl)piperazine-1-carboxylate], which IC50 is on record?
A: The IC50 was 140 nM.
